How the values were obtained:
FGFR2 = assay: FGFR phosphorylation in KATO III cells (Western blotting, Wes); assay type: cell-based
Description: For assessment of the effect of RPT835 inhibitor characterized in this invention with formula II, stomach cancer cells KATO III, which express FGFR2, were used for FRS2 phosphorylation. FGF-2 in concentration of 1 mg/ml and heparin 10 mg/ml were added to the cells for stimulation of FGFR. RPT835 was added in various concentrations. A part of the cells was left without adding the inhibitor, and a part of the cells—without adding either inhibitor, or stimulating agents (control group).
Two standard methods for assessment of the phosphorylation level of FGFR and FRS2: • Western blotting using manual work; • Automatic capillary electrophoresis and immunodetection using automatic system Wes™ (ProteinSimple; SantaClara, Calif.).
Like in Example 1, stomach cancer cells KATO III strongly expressing FGFR2 were used. A part of cells stimulated FGF-2 in concentration 1 mg/ml and heparin 10 mg/ml. The other part of the cells was left without stimulation. Inhibitor RPT835 in dose 1, 10, 100, 1000 nM was added to cells. The control group left without addition of RPT835.
The level of FGFR phosphorylation was assessed using standard Western-blotting and automatic capillary electrophoresis with immune-detection and use of automatic system Wes™ (ProteinSimple; SantaClara, Calif.).

[1] = system: SKOV3 ovarian cancer cells; assay: Crystal Violet proliferation assay, SKOV3; assay type: cell-based; conditions: SKOV3, low FGFR2 expression; bFGF 100 ng/ml, 7 days
Text: This research used additional cell lines: SKOV3 (ovarian cancer, ATCC # HTB-77), HS578T (breast cancer, ATCC # HTB-126), T47D (breast cancer, ATCC #HTB-1336), modified line of non-small cells lung cancer A549, line of metastatic melanoma of skin Mel Kor (RF Patent No. 2287578), and additional study of antiangiogenic activity—cell line SVEC-4-10 (endothelial cells, ATCC #CRL-2181).
The cells were cultivated in environment RPMI-1640 (PANECO) (SKOV3, HS578T, T47D, Mel-Kor) or DMEM (PANECO) (SVEC-4-10) containing 10% of embryonal serum cattle (FCS, HyClone), 2 mM glutamine (PANECO), antibiotics (100 IU/mL penicillin and […] streptomycin (all PANECO)) at 37° C. and 5% CO2. Cells at 70-80% monolayer were used for the experiments.
The cells were planted in low density (30 t of cells/ml) in triplets on a 96-cavity plate in an environment containing 0.1% of FCS serum. […] Growth of cells was determined by the modified “Crystal Violet mitogenic method” for 7 days after the experiment start. […] The dye was dissolved in ethanol and measured on a spectrophotometer at 540-560 nm. The curve of cell proliferative activity inhibition was built by the dependence of the percent of the cell quantity (Y axis) on concentration of inhibitor RPT835 in the cavity of the plate (X axis). […]

[2] = system: non-small cell lung cancer NCI-H226; assay: Tumor growth of NCI-H226 xenograft in nude mice; assay type: in vivo; conditions: 30 day; NCI-H226 not expressing FGFR2, 30 mg/kg daily through a stomach tube; P=0.619 vs control
Description: Females of immunodeficient mice (nude) at the age of 8 weeks were administered 2×10^6 tumor cells of human cell lines with various expression of FGFR2: • cell line of triple-negative breast cancer SUM52PE strongly expressing FGFR2 (purchased from Asterand, Inc. (Detroit, Mich.) • cell line of triple negative breast cancer HS578T weakly expressing FGFR2 (purchased from ATCC (CRL-125) • cell line of non-small cell lung cancer NCI-H226 not expressing FGFR2 (purchased from ATCC (CRL-5826)
After the tumor growth got established (1 mm^3), the mice were divided into control and treatment groups in accordance with the tumor type.
Control group 3 (N=10): NCI-H226, administration of water through a stomach tube, daily.
Treatment group 3 (N=10): NCI-H226, administration of inhibiter RPT835 through a stomach tube in a dose of 30 mg/kg, daily.
Size of tumor and weight of animals were measured every 3 day. The mice underwent euthanasia when the tumor reached the size of 2,000 mm^3 or on the 60 day of the experiment.

Cc1cc([N+](=O)[O-])c(NS(=O)(=O)c2cccc(C(=O)O)c2)cc1-c1cccnc1 [RPT835, 3-(N-(4-methyl-2-nitro-5-(pyridin-3-yl)phenyl)sulfamoyl)benzoic acid]
phosphorylation of FGFR2 stimulated by FGF-2 (tyrosine kinase activity) (FGFR2; KATO III cells, 1, 10, 100, 1000 nM): did not have any effect | phosphorylation of general FGFR (FGFR2; KATO III cells, with and without FGF-2 stimulation): without influence on phosphorylation of general FGFR | inhibition of proliferative activity [1]: moderate effect | average tumor volume [2]: 1,053±259.7 mm3

— patent US9957236B2, “Selective inhibitors interfering with fibroblast growth factor receptor and FRS2 interaction for the prevention and treatment of cancer and other diseases” (LIMITED LIABILITY COMPANY “RUSSIAN PHARMACEUTICAL …, priority 2014, dated 2018)
